Reference: patent US11051515B2, “3-acyl-benzamides and their use as herbicides” (Bayer Aktiengesellschaft, priority 2017, dated 2021)

How the values were obtained:
SETVI [1] = assay: Pre-emergence action against SETVI; type: in vivo, Setaria viridis; settings: pre-emergence, dosage 320 g/ha, scored visually after 3 weeks vs untreated controls
How it was run: (§1)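 Seeds sown in sandy loam in wood-fiber pots and covered with soil. Greenhouse growth; visual damage scored after 3 weeks versus untreated controls (100% = dead, 0% = like control).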

AMARE [2] = assay: Post-emergence action against AMARE; type: in vivo, Amaranthus retroflexus; settings: Amaranthus retroflexus, 504 h; post-emergence, dosage 80 g/ha, visual assessment about 3 weeks after treatment vs untreated controls; read-out: Post-emergence action against AMARE (herbicidal action in percent)
How it was run: (§2)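 Weeds grown in sandy loam in greenhouse, treated at one-leaf stage (2–3 weeks after sowing) with WP or EC formulations sprayed as aqueous suspension/emulsion at 600 to […] water with 0.2% wetting agent. Visual rating after about 3 weeks versus untreated controls, as % herbicidal action (100% = plants dead, 0% = like control).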

MATIN [3] = assay: Post-emergence action against MATIN; type: in vivo, Matricaria inodora; settings: post-emergence, dosage 80 g/ha, visual assessment about 3 weeks after treatment vs untreated controls
How it was run: as §2

VIOTR [4] = assay: Pre-emergence action against VIOTR; type: in vivo, Viola tricolor; settings: Dosage 320 g/ha, pre-emergence
How it was run: as §1

AVEFA = assay: Pre-emergence action against AVEFA; type: in vivo, Avena fatua; settings: dosage 320 g/ha, scored visually after 3 weeks vs untreated controls
How it was run: as §1

PHBPU [5] = assay: Post-emergence action against PHBPU; type: in vivo, Pharbitis purpurea; settings: post-emergence, dosage 80 g/ha
How it was run: as §2

VERPE [6] = assay: Post-emergence action against VERPE; type: in vivo, Veronica persica; settings: Veronica persica, 504 h, dosage 80 g/ha
How it was run: as §2

ECHCG [7] = assay: Pre-emergence action against ECHCG; type: in vivo, Echinochloa crus-galli; settings: pre-emergence, dosage 320 g/ha, scored visually after 3 weeks vs untreated controls
How it was run: as §1

VIOTR [8] = assay: Post-emergence action against VIOTR; type: in vivo, Viola tricolor; settings: post-emergence, dosage 80 g/ha
How it was run: as §2

POLCO [9] = assay: Post-emergence action against POLCO; type: in vivo, Polygonum convolvulus; settings: post-emergence, dosage 80 g/ha
How it was run: as §2

ECHCG [10] = assay: Post-emergence action against ECHCG; type: in vivo, Echinochloa crus-galli; settings: post-emergence, dosage 80 g/ha, visual assessment about 3 weeks after treatment vs untreated controls
How it was run: as §2

LOLMU = assay: Pre-emergence action against LOLMU; type: in vivo, Lolium multiflorum; settings: dosage 320 g/ha, scored visually after 3 weeks vs untreated controls
From the text: Seeds of monocotyledonous and dicotyledonous weed plants and crop plants are laid out in sandy loam soil in wood-fiber pots and covered with soil. The compounds of the invention, formulated in the form of wettable powders (WP) or as emulsion concentrates (EC), are then applied to the surface of the covering soil in the form of an aqueous suspension or emulsion at a water application rate equating to […], with addition of 0.2% wetting agent. After the treatment, the pots are placed in a greenhouse and kept under good growth conditions for the trial plants. The damage to the test plants is scored visually after a test period of 3 weeks by comparison with untreated controls (herbicidal activity in percent (%): 100% activity=the plants have died, 0% activity=like control plants).

ABUTH [11] = assay: Post-emergence action against ABUTH; type: in vivo, Abutilon theophrasti; settings: post-emergence, dosage 80 g/ha, visual assessment about 3 weeks after treatment vs untreated controls
How it was run: as §2

MATIN [12] = assay: Pre-emergence action against MATIN; type: in vivo, Matricaria inodora; settings: Dosage 320 g/ha, pre-emergence
How it was run: as §1

ALOMY = assay: Pre-emergence action against ALOMY; type: in vivo, Alopecurus myosuroides; settings: dosage 320 g/ha, pre-emergence, scored visually after 3 weeks vs untreated controls, 100% = plants have died, 0% = like control plants
How it was run: as §1

POLCO [13] = assay: Pre-emergence action against POLCO; type: in vivo, Polygonum convolvulus; settings: Dosage 320 g/ha, pre-emergence
How it was run: as §1

CYPES [14] = assay: Pre-emergence action against CYPES; type: in vivo, Cyperus esculentus; settings: pre-emergence, dosage 320 g/ha, scored visually after 3 weeks vs untreated controls
How it was run: as §1

AMARE [15] = assay: Pre-emergence action against AMARE; type: in vivo, Amaranthus retroflexus; settings: pre-emergence, dosage 320 g/ha, scored visually after 3 weeks vs untreated controls
How it was run: as §1

ABUTH [16] = assay: Pre-emergence action against ABUTH; type: in vivo, Abutilon theophrasti; settings: pre-emergence, dosage 320 g/ha, scored visually after 3 weeks vs untreated controls
How it was run: as §1

CYPES [17] = assay: Post-emergence action against CYPES; type: in vivo, Cyperus esculentus; settings: post-emergence, dosage 80 g/ha, visual assessment about 3 weeks after treatment vs untreated controls
How it was run: as §2

STEME [18] = assay: Post-emergence action against STEME; type: in vivo, Stellaria media; settings: post-emergence, dosage 80 g/ha
How it was run: as §2

VERPE [19] = assay: Pre-emergence action against VERPE; type: in vivo, Veronica persica; settings: Dosage 320 g/ha, pre-emergence
How it was run: as §1

SETVI [20] = assay: Post-emergence action against SETVI; type: in vivo, Setaria viridis; settings: post-emergence, dosage 80 g/ha, visual assessment about 3 weeks after treatment vs untreated controls
How it was run: as §2

STEME [21] = assay: Pre-emergence action against STEME; type: in vivo, Stellaria media; settings: Dosage 320 g/ha, pre-emergence
How it was run: as §1

PHBPU [22] = assay: Pre-emergence action against PHBPU; type: in vivo, Pharbitis purpurea; settings: Dosage 320 g/ha, pre-emergence
How it was run: as §1

## CCn1nnnc1NC(=O)c1ccc(C(F)(F)F)c(C(C)=O)c1Cl [2-137, 3-acetyl-2-chloro-N-(1-ethyl-1H-tetrazol-5-yl)-4-(trifluoromethyl)benzamide]
SETVI [1]; Setaria viridis, 504 h, read-out: SETVI (Table B8, pre-emergence herbicidal activity)
  pest or weed control at 320 g/ha: 100%
AMARE [2]
  pest or weed control at 80 g/ha: 100%
MATIN [3]; Tripleurospermum inodorum, 504 h, read-out: Post-emergence action against MATIN (herbicidal action in percent)
  pest or weed control at 80 g/ha: 100%
VIOTR [4]; Viola tricolor, 504 h
  pest or weed control at 320 g/ha: 100%
AVEFA; Avena fatua, 504 h, read-out: Pre-emergence action against AVEFA (herbicidal activity)
  pest or weed control at 320 g/ha: 90%
PHBPU [5]; Ipomoea purpurea, 504 h
  pest or weed control at 80 g/ha: 90%
VERPE [6]
  pest or weed control at 80 g/ha: 90%
ECHCG [7]; Echinochloa crus-galli, 504 h, read-out: Pre-emergence action against ECHCG (herbicidal activity)
  pest or weed control at 320 g/ha: 100%
VIOTR [8]; Viola tricolor, 504 h
  pest or weed control at 80 g/ha: 100%
POLCO [9]; Fallopia convolvulus, 504 h
  pest or weed control at 80 g/ha: 90%
ECHCG [10]; Echinochloa crus-galli, 504 h, read-out: Post-emergence action against ECHCG (herbicidal action in percent)
  pest or weed control at 80 g/ha: 90%
LOLMU; Lolium multiflorum, 504 h, read-out: Pre-emergence action against LOLMU (herbicidal activity)
  pest or weed control at 320 g/ha: 80%
ABUTH [11]; Abutilon theophrasti, 504 h, read-out: Post-emergence action against ABUTH (herbicidal action in percent)
  pest or weed control at 80 g/ha: 90%
MATIN [12]; Tripleurospermum inodorum, 504 h
  pest or weed control at 320 g/ha: 100%
ALOMY; Alopecurus myosuroides, 504 h, read-out: Pre-emergence action against ALOMY (herbicidal activity in percent)
  pest or weed control at 320 g/ha: 90%
POLCO [13]; Fallopia convolvulus, 504 h
  pest or weed control at 320 g/ha: 90%
CYPES [14]; Cyperus esculentus, 504 h, read-out: Pre-emergence action against CYPES (herbicidal activity)
  pest or weed control at 320 g/ha: 100%
AMARE [15]; Amaranthus retroflexus, 504 h, read-out: Pre-emergence action against AMARE (herbicidal activity)
  pest or weed control at 320 g/ha: 100%
ABUTH [16]; Abutilon theophrasti, 504 h, read-out: Pre-emergence action against ABUTH (herbicidal activity)
  pest or weed control at 320 g/ha: 100%
CYPES [17]; Cyperus esculentus, 504 h, read-out: Post-emergence action against CYPES (herbicidal action in percent)
  pest or weed control at 80 g/ha: 90%
STEME [18]; Stellaria media, 504 h
  pest or weed control at 80 g/ha: 100%
VERPE [19]; Veronica persica, 504 h
  pest or weed control at 320 g/ha: 90%
SETVI [20]; Setaria viridis, 504 h, read-out: Post-emergence action against SETVI (herbicidal action in percent)
  pest or weed control at 80 g/ha: 100%
STEME [21]; Stellaria media, 504 h
  pest or weed control at 320 g/ha: 90%

## CCn1nnnc1NC(=O)c1ccc(C(F)(F)F)c(C(C)=O)c1Br [2-195]
SETVI [1]
  SETVI (Table B8, pre-emergence herbicidal activity): 100%
MATIN [3]
  Post-emergence action against MATIN (herbicidal action in percent): 90%
VIOTR [4]
  Pre-emergence action against VIOTR: 100%
AVEFA
  Pre-emergence action against AVEFA (herbicidal activity): 90%
PHBPU [5]
  Post-emergence action against PHBPU: 90
PHBPU [22]
  Pre-emergence action against PHBPU: 80%
ECHCG [7]
  Pre-emergence action against ECHCG (herbicidal activity): 100%
VIOTR [8]
  Post-emergence action against VIOTR: 100
POLCO [9]
  Post-emergence action against POLCO: 90
ECHCG [10]
  Post-emergence action against ECHCG (herbicidal action in percent): 90%
LOLMU
  Pre-emergence action against LOLMU (herbicidal activity): 80%
ABUTH [11]
  Post-emergence action against ABUTH (herbicidal action in percent): 80%
MATIN [12]
  Pre-emergence action against MATIN: 100%
ALOMY
  Pre-emergence action against ALOMY (herbicidal activity in percent): 90%
POLCO [13]
  Pre-emergence action against POLCO: 90%
CYPES [14]
  Pre-emergence action against CYPES (herbicidal activity): 100%
AMARE [15]
  Pre-emergence action against AMARE (herbicidal activity): 100%
ABUTH [16]
  Pre-emergence action against ABUTH (herbicidal activity): 100%
CYPES [17]
  Post-emergence action against CYPES (herbicidal action in percent): 90%
STEME [18]
  Post-emergence action against STEME: 90
VERPE [19]
  Pre-emergence action against VERPE: 100%
SETVI [20]
  Post-emergence action against SETVI (herbicidal action in percent): 90%
STEME [21]
  Pre-emergence action against STEME: 100%
